# Assay results from patent US4618677A, “Substituted phenylalkyl-(piperazinyl or homopiperazinyl)alkyl-thiols and -thiocarbamates useful for the treatment of immunological, inflammatory, and allergic disorders” (Boehringer Ingelheim Limited, priority 1984, dated 1986).
# Values joined by “and” are separate entries in the source; they are usually repeats but may differ in a detail not shown here. Identical values can stand only once. Counter-ions that a name gives are not always drawn.
# How the values were obtained:
# [1] = tested on: human leukocytes (basophils); experiment: Inhibition of IgE-mediated histamine release from human leukocytes (basophils), Procedure A; assay type: cell-based; conditions: from human basophils, rabbit anti-human IgE as antigen, 60 min at 37° C., > = no response detected at highest dose indicated; for IC50: Leukocyte, 1 h, read-out: In Vitro Inhibition of Histamine Release IC50 (μM) Procedure A
# Procedure: A. Procedure for Determining Inhibition of Histamine Release from Human Leukocytes (Basophils)
# Separation of Leukocytes: A modification of the method of L. Lichtenstein and A. Osler, J. Exp. Med. 120, 507 (1964) is used. Heparinized human blood (80-100 ml) is mixed with 20 ml of saline (0.2%) containing 0.6 gm of dextrose and 1.2 gm of dextran in propylene centrifuge tubes. The mixture is kept at ambient temperature for 60-90 minutes to allow the separation of erythrocytes from the platelet-leukocyte-rich supernate. The supernate is removed and centrifuged for 8 minutes at 110 ×g in cold. The leukocyte pellet is washed twice with Tris buffer and finally suspended in 150-180 ml Tris-ACM buffer at 1-2 ×10^6 cells/ml.
# Reaction Mixture: The reaction is carried out in 12×75 mm plastic tubes at a total volume of 1.23 ml. The reaction medium includes 0.05 ml rabbit anti-human IgE (the antigen), 0.2 ml of the test compound in water at concentrations ranging from 10-100 μM, and 1.0 ml of the leukocyte suspension. The reaction mixture is incubated in a 37° C. shaking water bath for 60 minutes. Upon completion of the reaction, the tubes are centrifuged and the supernatants collected. The protein is removed from the supernatants by precipitation with 0.2 ml of 8% perchloric acid.
# Histamine Assay: Histamine release is measured by the automated fluorometric method of W. Siraganian and W. Hook in Chapter 102 of the Manual of Clinical Immunology, 2nd Edition, edited by R. Rose and H. Friedman, published by the American Society for Microbiology, Washington, D.C., 1980. Percent inhibition is calculated as follows: [formula]
# The concentration which causes a 50 percent inhibition (IC50) of histamine release is interpolated from a plot of percent inhibition versus logarithm of drug concentration.
# [2] = biological target: T1, histamine (H1) receptor (Cavia porcellus, UniProt P31389); experiment: Antagonism of histamine-induced contraction of isolated guinea pig ileum; assay type: tissue-based; conditions: histamine final concentration 0.2 μg/ml, 50% reduction of contractile response, read-out: Inhibition IC50 (μM) of histamine-induced contraction
# T1 construct: contraction of isolated guinea pig ileum; from tissue; host or cells: isolated guinea pig ileum
# T1 sequence (P31389 whole entry): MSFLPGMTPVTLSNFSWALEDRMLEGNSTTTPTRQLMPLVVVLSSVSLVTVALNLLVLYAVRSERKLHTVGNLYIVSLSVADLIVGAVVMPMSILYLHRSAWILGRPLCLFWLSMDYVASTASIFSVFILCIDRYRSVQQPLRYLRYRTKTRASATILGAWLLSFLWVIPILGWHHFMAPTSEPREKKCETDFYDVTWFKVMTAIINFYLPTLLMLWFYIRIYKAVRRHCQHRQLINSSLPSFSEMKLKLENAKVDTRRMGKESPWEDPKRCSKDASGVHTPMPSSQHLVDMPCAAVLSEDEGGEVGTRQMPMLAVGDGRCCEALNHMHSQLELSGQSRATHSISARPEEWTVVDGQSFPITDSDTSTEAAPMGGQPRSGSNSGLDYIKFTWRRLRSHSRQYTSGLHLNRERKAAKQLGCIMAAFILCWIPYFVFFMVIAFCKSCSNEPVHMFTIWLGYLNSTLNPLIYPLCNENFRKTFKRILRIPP
# Text: Certain compounds of formula I inhibit in vitro the histamine-induced contraction of isolated guinea pig ileum and are useful in warm-blooded animals for antagonizing the action of histamine at the histamine (H1) receptor. Accordingly, these compounds can be employed in a conventional manner as antihistamine agents for the treatment of allergic disorders, for example allergic rhinitis, vasomotor rhinitis, allergic conjunctivitis, hay fever, urticaria, and food allergies.
# The antagonism of the effects of histamine on the contraction of isolated guinea pig ileum by the compounds of formula I can be determined by the procedure of G. Possanza, A. Bauen, and P. Stewart, Int. Arch. Allergy Appl. Immunol., 49, 289 (1975). The degree of inhibition is determined as the difference between the contraction caused by histamine (final concentration 0.2 μg/ml) alone and that seen in the presence of both histamine and the test compound. The inhibitory activity of the test compound is expressed as that concentration of the compound which causes a 50% reduction of the contractile response (IC50).
In Vitro Inhibition of Histamine Release IC50 (μM) Procedure A [1],IC50 [2],IC50 [1] [µM],SMILES
Int.,0.19 µM,,"CNC(=O)SCCCN1CCN(Cc2ccc(Cl)cc2)CC1 [Example 4, N-Methyl-S-{3-[4-(4-chlorobenzyl)piperazin-1-yl]propyl}thiocarbamate dihydrochloride]"
Int.,0.21 µM and 0.3 µM,,"CC(C)NC(=O)SCCCN1CCN(Cc2ccc(Cl)cc2)CC1 [Example 5, N-Isopropyl-S-{3-[4-(4-chlorobenzyl)piperazin-1-yl]propyl}thiocarbamate dihydrochloride]"
,0.12 µM,11,"O=C(Nc1ccc(F)cc1)SCCCN1CCN(Cc2ccc(Cl)cc2)CC1 [Example 9, N-(4-Fluorophenyl)-S-{3-[4-(4-chlorobenzyl)piperazin-1-yl]propyl}thiocarbamate dihydrochloride]"
,0.12 µM,,"COc1ccc(NC(=O)SCCCN2CCN(Cc3ccc(Cl)cc3)CC2)cc1 [Example 14, N-(4-Methoxyphenyl)-S-{3-[4-(4-chlorobenzyl)piperazin-1-yl]propyl}thiocarbamate dihydrochloride monohydrate]"
,0.06 µM,25,"O=C(Nc1ccccc1)SCCCN1CCN(CCc2ccc(Cl)cc2)CC1 [Example 26, N-Phenyl-S-{3-[4-(4-chlorophenethyl)piperazin-1-yl]propyl}thiocarbamate dihydrochloride monohydrate]"
,0.18 µM,9,"COc1cc(NC(=O)SCCCN2CCN(CCc3ccc(Cl)cc3)CC2)cc(OC)c1OC [Example 29, N-(3,4,5-Trimethoxyphenyl)-S-{3-[4-(4-chlorophenethyl)piperazin-1-yl]propyl}thiocarbamate dihydrochloride]"
,,71,"CCCCCCNC(=O)SCCCN1CCN(Cc2ccc(Cl)cc2)CC1 [Example 40, N-(n-Hexyl)-S-{3-[4-(4-chlorobenzyl)piperazin-1-yl]propyl}thiocarbamate dihydrochloride]"
,,> 1000,"CCCCCCNC(=O)SCCCN1CCN(CC=Cc2ccccc2)CC1 [Example 44, N-(n-Hexyl)-S-[3-(4-cinnamylpiperazin-1-yl)propyl]thiocarbamate dihydrochloride]"
,,3,"SCCCN1CCCN(Cc2ccc(Cl)cc2)CC1 [Example 45, 3-[4-(4-Chlorobenzyl)homopiperazin-1-yl]propanethiol]"
,,12,"CCCCCCNC(=O)SCCCN1CCCN(Cc2ccc(Cl)cc2)CC1 [Example 46, N-(n-Hexyl)-S-{3-[4-(4-chlorobenzyl)homopiperazin-1-yl]propyl}thiocarbamatedihydrochloride]"
,,58,"CC(C)(C)NC(=O)SCCCN1CCN(Cc2ccc(Cl)cc2)CC1 [Example 47, N-(t-Butyl)-S-{3-[4-(4-chlorobenzyl)piperazin-1-yl]propyl}thiocarbamate dihydrochloride sesquihydrate]"
